Patent publication US7592308B2, “F3W variants of the lantibiotic mersacidin and its use” (priority 2004, dated 2009)
Values after ≈ are worked out from the molar mass of the structure shown. “Also recorded” adds a separate entry of the source. Where two headings read alike, the source gives them in different places. Square brackets hold non-standard residues; d marks the D form. Ends that are not written are not given here. Dhb = C/C=C(\N)C(=O)O; Dha = C=C(N)C(=O)O

What was measured:
E. faecium 19579 = assay: MIC, two-fold serial dilution in broth; type: cell-based, Enterococcus faecium; conditions: duplicate
Protocol: (§1) A selection of the variants produced in Example 1 above were tested further for activity against a range of bacteria. Minimum inhibitory concentrations (MICs) for all organisms with the exception of Streptococcus pneumoniae were determined by two-fold serial antibiotic dilutions in Mueller-Hinton broth (MHB) supplemented with 50 μg/ml calcium as calcium chloride dihydrate. Minimum inhibitory concentrations (MICs) for S. pneumoniae were determined by two-fold serial antibiotic dilutions in Brain Heart Infusion (BHI) broth supplemented with 50 μg/ml calcium as calcium chloride dihydrate. Antimicrobial agent stock solutions were prepared and stored according to NCCLS standard M7-A6.
(§2) Actively growing broth cultures were diluted to contain […] by adjusting to an absorbance of 0.2-0.3 at 600 nm, equivalent to the McFarland 0.5 standard. They were then diluted a further 1:100 in broth. The assays were performed in duplicate in sterile 96-well microtitre plates in a total volume of 200 μl (160 μl broth, 20 μl antibiotic, 20 μl inoculum) in a concentration range from 64 μg/ml to 0.06 μg/ml. The 12th well of the microtitre plate contained no antimicrobial agent. Vancomycin was used as a reference antibiotic for quality control. Plates were incubated aerobically, shaking, for 18-20 hours at 37° C. with the MIC defined as the lowest concentration of drug that produced no visible growth.

E. faecium 7131121 = assay: MIC, two-fold serial dilution in broth; type: cell-based, Enterococcus faecium; conditions: duplicate
Protocol: as §1, §2

E. faecalis 29212 = assay: MIC, two-fold serial dilution in broth; type: cell-based, Enterococcus faecalis; conditions: duplicate
Protocol: as §1, §2

S. aureus SH1000 = type: cell-based, Staphylococcus aureus
Protocol: as §1, §2

S. aureus R33 = type: cell-based, Staphylococcus aureus; conditions: Table 8A; MHB + 50 μg/ml calcium; duplicate
Protocol: as §1, §2

M. luteus 4698 = type: cell-based, Micrococcus luteus
Protocol: as §1, §2

E. faecium 4147-1 = type: cell-based, Enterococcus faecium
Protocol: (§3) MIC tests were performed with some of the variants of Example 2 on a range of other organisms. The results are shown in Tables 9 and 10 (figures in μg/ml): […]

E. faecium 4147 VRE = type: cell-based, Enterococcus faecium
Protocol: as §3

S. aureus SG511 = type: cell-based, Staphylococcus aureus
Protocol: as §3

S. aureus COL MRSA = type: cell-based, Staphylococcus aureus
Protocol: as §3

S. aureus 1012-13 MRSA = type: cell-based, Staphylococcus aureus
Protocol: as §3

S. aureus CS = type: cell-based, Staphylococcus aureus
Protocol: as §3

S. pyogenes 16205 = type: cell-based, Streptococcus pyogenes
Protocol: as §3

S. pyogenes 13608 = type: cell-based, Streptococcus pyogenes
Protocol: as §3

S. pneumoniae R6 = type: cell-based, Streptococcus pneumoniae; conditions: Table 8B; BHI broth + 50 μg/ml calcium; duplicate
Protocol: as §1, §2

M. luteus = conditions: data of Szekat et al., cited from earlier work; for fold greater MIC measured against M. luteus: compared with mersacidin
[1] = Table 8A, MHB + 50 μg/ml calcium
[2] = Table 8A, MHB + 50 μg/ml calcium, duplicate
[3] = Table 8B, MHB + 50 μg/ml calcium, duplicate

C=C1NC(=O)C2NC(=O)[C@H](CC(C)C)NC(=O)C(NC(=O)[C@@H]3CSC(C)C(NC(=O)[C@H](Cc4ccccc4)NC(=O)C4NC(=O)[C@@H](N)CSC4C)C(=O)N[C@@H](CC(C)C)C(=O)N4CCC[C@H]4C(=O)NCC(=O)NCC(=O)NCC(=O)N[C@@H](C)C(=O)N[C@@H](C(C)C)C(=O)N3)C(C)SC[C@H](NC(=O)[C@H](CCC(=O)O)NC1=O)C(=O)N[C@@H]([C@@H](C)CC)C(=O)NC=CSC2C (stereo partly shown) [G10A]
MIC E. faecium 19579 (E. faecium 19579; [1]): >64, >64 μg/ml
MIC E. faecium 7131121 (E. faecium 7131121; [1]): >64, >64 μg/ml
MIC E. faecalis 29212 (E. faecalis 29212; [1]): >64, >64 μg/ml
MIC S. aureus SH1000 (S. aureus SH1000; [2]): >64, >64 μg/ml
MIC S. aureus R33 (S. aureus R33): >64, >64 μg/ml

CC[C@H](C)[C@@H]1NC(=O)[C@@H]2CSC(C)C(NC(=O)[C@@H]3CSC(C)C(NC(=O)[C@H](Cc4ccccc4)NC(=O)C4NC(=O)[C@@H](N)CSC4C)C(=O)N[C@@H](CC(C)C)C(=O)N4CCC[C@H]4C(=O)NCC(=O)NCC(=O)NCC(=O)NCC(=O)N[C@@H](C(C)C)C(=O)N3)C(=O)N[C@@H](CC(C)C)C(=O)NC(C(=O)N[C@@H](Cc3c[nH]cn3)C(=O)N[C@@H](CCC(=O)O)C(=O)N2)C(C)SC=CNC1=O (stereo partly shown) [Dha16H]
MIC M. luteus 4698 (M. luteus 4698; 4698): 4 µg/mL (≈ 2.11 µM)
MIC E. faecium 4147-1 (E. faecium 4147-1; Table 9, 16 h): 128-16 h, μg/ml
MIC E. faecium 4147-1 (E. faecium 4147-1; Table 9, 23 h): 256-23 h μg/ml
MIC E. faecium 4147 VRE (E. faecium 4147 VRE; 4147 VRE): 128 µg/mL (≈ 67.6 µM)
MIC S. aureus SG511 (S. aureus SG511): 8 µg/mL (≈ 4.22 µM)
MIC S. aureus COL MRSA (S. aureus COL MRSA): 64 µg/mL (≈ 33.8 µM)
MIC S. aureus 1012-13 MRSA (S. aureus 1012-13 MRSA): 64 µg/mL (≈ 33.8 µM)
MIC S. aureus CS (S. aureus CS): 64 µg/mL (≈ 33.8 µM)
MIC S. pyogenes 16205 (S. pyogenes 16205): 4 µg/mL (≈ 2.11 µM)
MIC S. pyogenes 13608 (S. pyogenes 13608): 4 µg/mL (≈ 2.11 µM)

mersacidin L14I Dha16Dhb (CTFTLPGGGGVCTIT[Dhb]ECIC; thioether (positions not given here); not fully specified; UniProt P43683 49-68, looked up, variant L14I S16T) [mersacidin double variant]
MIC E. faecium 7131121 (E. faecium 7131121; Table 18, double variants): >64, >64 μg/ml
MIC E. faecalis 29212 (E. faecalis 29212; Table 18, double variants): >64, >64 μg/ml

G7A: mersacidin variant (CTFTLPAGGGVCTLT[Dha]ECIC; thioether (positions not given here); not fully specified; UniProt P43683 49-68, looked up, variant G7A)
MIC E. faecium 7131121 (E. faecium 7131121; [1]): >64, >64 μg/ml
MIC E. faecalis 29212 (E. faecalis 29212; [1]): >64, >64 μg/ml
MIC S. pneumoniae R6 (S. pneumoniae R6): >64, >64 μg/ml
MIC S. aureus SH1000 (S. aureus SH1000; [2]): >64, >64 μg/ml

mersacidin E17A (CTFTLPGGGGVCTLT[Dha]ACIC; thioether (positions not given here); not fully specified; UniProt P43683 49-68, looked up, variant E17A) [mersacidin variant produced by Szekat et al]
antibacterial activity (in words) (M. luteus): essentially inactive; also recorded: no antibacterial activity
fold greater MIC measured against M. luteus (M. luteus): about 1,000 fold

C=C1NC(=O)C2NC(=O)[C@H](CC(C)C)NC(=O)C(NC(=O)[C@@H]3CSC(C)C(NC(=O)[C@H](Cc4ccccc4)NC(=O)C4NC(=O)[C@@H](N)CSC4C)C(=O)N[C@@H](CC(C)C)C(=O)N4CCC[C@H]4C(=O)NCC(=O)N[C@@H](Cc4c[nH]cn4)C(=O)NCC(=O)NCC(=O)N[C@@H](C(C)C)C(=O)N3)C(C)SC[C@H](NC(=O)[C@H](CCC(=O)O)NC1=O)C(=O)N[C@@H]([C@@H](C)CC)C(=O)NC=CSC2C (stereo partly shown) [G8H]
MIC E. faecium 19579 (E. faecium 19579; Table 11): >64, >64 μg/ml
MIC E. faecium 7131121 (E. faecium 7131121; Table 11): >64, >64 μg/ml
MIC E. faecalis 29212 (E. faecalis 29212; Table 11): >64, >64 μg/ml
MIC S. aureus SH1000 (S. aureus SH1000; SH1000): 64, >64 μg/ml

S16I: mersacidin variant produced by Szekat et al. (CTFTLPGGGGVCTLTIECIC; thioether (positions not given here); not fully specified; UniProt P43683 49-68, looked up, variant S16I)
antibacterial activity (in words) (M. luteus): essentially inactive
fold greater MIC measured against M. luteus (M. luteus): about 1,000 fold

G8Q: mersacidin variant (CTFTLPGQGGVCTLT[Dha]ECIC; thioether (positions not given here); not fully specified; UniProt P43683 49-68, looked up, variant G8Q)
MIC E. faecium 19579 (E. faecium 19579; [1]): >64, >64 μg/ml
MIC E. faecium 7131121 (E. faecium 7131121; [1]): >64, >64 μg/ml
MIC E. faecalis 29212 (E. faecalis 29212; [1]): >64, >64 μg/ml
MIC S. aureus SH1000 (S. aureus SH1000; [2]): >64, >64 μg/ml

C=C1NC(=O)C2NC(=O)[C@H](CC(C)C)NC(=O)C(NC(=O)[C@@H]3CSC(C)C(NC(=O)[C@H](Cc4ccccc4)NC(=O)C4NC(=O)[C@@H](N)CSC4C)C(=O)N[C@@H](CC(C)C)C(=O)N[C@@H](C)C(=O)NCC(=O)NCC(=O)NCC(=O)NCC(=O)N[C@@H](C(C)C)C(=O)N3)C(C)SC[C@H](NC(=O)[C@H](CCC(=O)O)NC1=O)C(=O)N[C@@H]([C@@H](C)CC)C(=O)NC=CSC2C (stereo partly shown) [P6A]
MIC M. luteus 4698 (M. luteus 4698; 4698): 4 µg/mL (≈ 2.22 µM)
MIC E. faecium 4147-1 (E. faecium 4147-1; 4147-1): 256 µg/mL (≈ 142 µM)
MIC E. faecium 4147 VRE (E. faecium 4147 VRE; Table 9, 16 h): 128-16 h, μg/ml
MIC E. faecium 4147 VRE (E. faecium 4147 VRE; Table 9, 24 h): 256-24 h μg/ml
MIC S. aureus SG511 (S. aureus SG511): 8 µg/mL (≈ 4.44 µM)
MIC S. aureus COL MRSA (S. aureus COL MRSA): 64 µg/mL (≈ 35.6 µM)
MIC S. aureus 1012-13 MRSA (S. aureus 1012-13 MRSA): 32 µg/mL (≈ 17.8 µM)
MIC S. aureus CS (S. aureus CS): 32 µg/mL (≈ 17.8 µM)
MIC S. pyogenes 16205 (S. pyogenes 16205): 8 µg/mL (≈ 4.44 µM)
MIC S. pyogenes 13608 (S. pyogenes 13608): 4 µg/mL (≈ 2.22 µM)

C=C1NC(=O)C2NC(=O)[C@H](CC(C)C)NC(=O)C(NC(=O)[C@@H]3CSC(C)C(NC(=O)[C@H](Cc4ccccc4)NC(=O)C4NC(=O)[C@@H](N)CSC4C)C(=O)N[C@@H](CC(C)C)C(=O)N4CCC[C@H]4C(=O)NCC(=O)NCC(=O)N[C@@H](CC(N)=O)C(=O)NCC(=O)N[C@@H](C(C)C)C(=O)N3)C(C)SC[C@H](NC(=O)[C@H](CCC(=O)O)NC1=O)C(=O)N[C@@H]([C@@H](C)CC)C(=O)NC=CSC2C (stereo partly shown) [G9N]
MIC E. faecium 19579 (E. faecium 19579; [1]): >64, >64 μg/ml
MIC E. faecium 7131121 (E. faecium 7131121; [1]): >64, >64 μg/ml
MIC E. faecalis 29212 (E. faecalis 29212; [1]): >64, >64 μg/ml
MIC S. pneumoniae R6 (S. pneumoniae R6): >64, >64 μg/ml
MIC S. aureus SH1000 (S. aureus SH1000; [2]): >64, >64 μg/ml

G10Y: mersacidin variant (CTFTLPGGGYVCTLT[Dha]ECIC; thioether (positions not given here); not fully specified; UniProt P43683 49-68, looked up, variant G10Y)
MIC M. luteus 4698 (M. luteus 4698; [3]): <4, <4 μg/ml
MIC S. pneumoniae R6 (S. pneumoniae R6): <4, <4 μg/ml
MIC S. aureus SH1000 (S. aureus SH1000; [2]): >64, >64 μg/ml

F3L: mersacidin variant produced by Szekat et al. (CTLTLPGGGGVCTLT[Dha]ECIC; thioether (positions not given here); not fully specified; UniProt P43683 49-68, looked up, variant F3L)
MIC against M. luteus (M. luteus): 12.5 µg/mL
antibacterial activity (in words) (M. luteus): weakly active

G7N: mersacidin variant (CTFTLPNGGGVCTLT[Dha]ECIC; thioether (positions not given here); not fully specified; UniProt P43683 49-68, looked up, variant G7N)
MIC M. luteus 4698 (M. luteus 4698; [3]): <4, <4 μg/ml
MIC E. faecalis 29212 (E. faecalis 29212; [1]): >64, >64 μg/ml
